Laboratory results taken from patent publication US4348393A, “N-Aryl oxazolidinones, oxazolidinethiones, pyrrolidinones, pyrrolidines and thiazolidinones” (Delalande S.A., priority 1978, dated 1982).

Legend:
[1] = test system: ptosis observed one hour after reserpine; test: Test B: antagonism of reserpine-induced ptosis in mice; assay type: in vivo; settings: Mus musculus, 1 h, po, antagonism of ptosis one hour after reserpine 2 mg/kg intravenous, read-out: Test B ED 50
Protocol: Test B: Antagonism with respect to the ptosis observed one hour after an intravenous injection (2 mg/kg) of reserpine given to mice, following the protocol described by C.

[2] = test system: generalized trembling caused by dl-5-hydroxytryptophane; test: Test A: potentiation in mice of generalized trembling caused by dl-5-hydroxytryptophane; assay type: in vivo; settings: po, mice, potentiation of trembling by dl-5-hydroxytryptophane 200 mg/kg interperitoneal; for ED50: Mus musculus, read-out: Test A ED 50
Protocol: Test A: Potentiation in mice of generalized trembling caused by an interperitoneal injection (200 mg/kg) of dl-5-hydroxytryptophane, following the protocol described by C. GOURET and G. RAYNAUD in J. Pharmacol. (Paris), (1974), 5, 231.

N#CCCOc1ccc(N2CC(COC3CCCCC3)OC2=O)cc1 (stereo not drawn) [compound 54]
ED50 [1]: 12.5 mg/kg | ED50 [2]: 14 mg/kg

CC(C)C(=O)OCC1CN(c2ccc(OCc3cccc(Cl)c3)cc2)C(=O)O1 (stereo not drawn) [compound 32]
ED50 [1]: 3.6 mg/kg | ED50 [2]: 4.7 mg/kg

CCCCC(=O)OCC1CN(c2ccc(OCc3cccc([N+](=O)[O-])c3)cc2)C(=O)O1 (stereo not drawn) [compound 39]
ED50 [1]: 1.6 mg/kg | ED50 [2]: 1.75 mg/kg

CCCOCC1CN(c2ccc(OCc3cccc(Cl)c3)cc2)C(=O)O1 (stereo not drawn) [compound 153]
ED50 [1]: 4 mg/kg | ED50 [2]: 3.8 mg/kg

CCCOCC1CN(c2ccc(OCc3ccccc3)cc2)C(=O)O1 (stereo not drawn) [compound 152]
ED50 [1]: 15.5 mg/kg | ED50 [2]: 18 mg/kg

O=C(OCC1CN(c2ccc(OCC3CCCC3)cc2)C(=O)O1)c1ccccc1 (stereo not drawn) [compound 20]
ED50 [1]: 3.7 mg/kg | ED50 [2]: 8.8 mg/kg

CCCCC(=O)OCC1CN(c2ccc(OCC3CCCC3)cc2)C(=O)O1 (stereo not drawn) [compound 16]
ED50 [1]: 1.5 mg/kg | ED50 [2]: 1.7 mg/kg

CCOCC1CN(c2ccc(OCc3cccc([N+](=O)[O-])c3)cc2)C(=O)O1 (stereo not drawn) [compound 69]
ED50 [1]: 0.2 mg/kg | ED50 [2]: 0.5 mg/kg

CCCCOc1ccc(N2CC(COC)OC2=O)cc1 (stereo not drawn) [compound 46]
ED50 [1]: 2 mg/kg | ED50 [2]: 1.5 mg/kg

CC(C)CCOc1ccc(N2CC(COC(=O)C(C)C)OC2=O)cc1 (stereo not drawn) [compound 127]
ED50 [1]: 4.3 mg/kg | ED50 [2]: 5 mg/kg

CCCCCCCCC(=O)OCC1CN(c2ccc(OCc3cccc(F)c3)cc2)C(=O)O1 (stereo not drawn) [compound 131]
ED50 [1]: 31 mg/kg | ED50 [2]: 12 mg/kg

NCC1CN(c2ccc(OCC3CCCC3)cc2)C(=O)O1 (stereo not drawn) [compound 76]
ED50 [1]: 6.2 mg/kg | ED50 [2]: 2.1 mg/kg

O=[N+]([O-])c1cc(Cl)cc(COc2ccc(N3CC(CO)OC3=S)cc2)c1 (stereo not drawn) [compound 113]
ED50 [1]: 3.5 mg/kg | ED50 [2]: 3.2 mg/kg

O=C(OCC1CN(c2ccc(OCC3CCCC3)cc2)C(=O)O1)C1CCCCC1 (stereo not drawn) [compound 18]
ED50 [1]: 4.25 mg/kg | ED50 [2]: 4 mg/kg

COCOCC1CN(c2ccc(OCc3cccc([N+](=O)[O-])c3)cc2)C(=O)O1 (stereo not drawn) [compound 73]
ED50 [1]: 0.8 mg/kg | ED50 [2]: 0.6 mg/kg

COCC1CN(c2ccc(/C=C\c3cccc([N+](=O)[O-])c3)cc2)C(=O)O1 (stereo not drawn) [compound 194]
ED50 [1]: 5.8 mg/kg | ED50 [2]: 6.4 mg/kg

N#CCCOc1ccc(N2CC(COC(=O)c3ccccc3)OC2=O)cc1 (stereo not drawn) [compound 10]
ED50 [1]: 5.8 mg/kg | ED50 [2]: 2.4 mg/kg

OCC1CN(c2ccc(OCC3CCCC3)cc2)C(=S)O1 (stereo not drawn) [compound 100]
ED50 [2]: 6.2 mg/kg

O=C(OCC1CN(c2ccc(OCC3CCCCC3)cc2)C(=O)O1)C1CCCCC1 (stereo not drawn) [compound 121]
ED50 [1]: 8 mg/kg | ED50 [2]: 11 mg/kg

COCC1CN(c2ccc(OCCC(C)C)cc2)C(=O)O1 (stereo not drawn) [compound 111]
ED50 [2]: 0.28 mg/kg

CC(C)OCC1CN(c2ccc(OCc3ccccc3)cc2)C(=O)O1 (stereo not drawn) [compound 58]
ED50 [1]: 8.8 mg/kg | ED50 [2]: 50 mg/kg

CC(C)(C)C(=O)OCC1CN(c2ccc(OCC3CCCCC3)cc2)C(=O)O1 (stereo not drawn) [compound 105]
ED50 [2]: 6.2 mg/kg

CCCCC(=O)OCC1CN(c2ccc(OCc3cccc(F)c3)cc2)C(=O)O1 (stereo not drawn) [compound 108]
ED50 [2]: 5.6 mg/kg

CCCCCCOc1ccc(N2CC(COC)OC2=O)cc1 (stereo not drawn) [compound 149]
ED50 [2]: 6 mg/kg

CC(C)COCC1CN(c2ccc(OCc3cccc([N+](=O)[O-])c3)cc2)C(=O)O1 (stereo not drawn) [compound 157]
ED50 [1]: 6.2 mg/kg | ED50 [2]: 4.7 mg/kg

CNCC1CN(c2ccc(OCc3cccc(Cl)c3)cc2)C(=O)O1 (stereo not drawn) [compound 83]
ED50 [1]: 6.2 mg/kg | ED50 [2]: 12.5 mg/kg

COCC1CN(c2ccc(OCC3CCCCC3)cc2)C(=O)O1 (stereo not drawn) [compound 55]
ED50 [1]: 1.1 mg/kg | ED50 [2]: 0.6 mg/kg

COCC1CN(c2ccc(OCC3CCOCC3)cc2)C(=O)O1 (stereo not drawn) [compound 144]
ED50 [1]: 1.1 mg/kg | ED50 [2]: 2.2 mg/kg

COCC1CN(c2ccc(OCc3ccc(F)c(Cl)c3)cc2)C(=O)O1 (stereo not drawn) [compound 163]
ED50 [1]: 8 mg/kg | ED50 [2]: 1.15 mg/kg

CCC(=O)OCC1CN(c2ccc(OCc3cc(Cl)cc([N+](=O)[O-])c3)cc2)C(=O)O1 (stereo not drawn) [compound 137]
ED50 [1]: 6 mg/kg

CCC(=O)OCC1CN(c2ccc(OCCC(C)C)cc2)C(=O)O1 (stereo not drawn) [compound 124]
ED50 [1]: 0.6 mg/kg

NCC1CN(c2ccc(OCc3cccc([N+](=O)[O-])c3)cc2)C(=O)O1 (stereo not drawn) [compound 84]
ED50 [1]: 1.3 mg/kg | ED50 [2]: 3 mg/kg

CC(C)C(=O)OCC1CN(c2ccc(OCc3cccc([N+](=O)[O-])c3)cc2)C(=O)O1 (stereo not drawn) [compound 38]
ED50 [1]: 2 mg/kg | ED50 [2]: 1.5 mg/kg

CC(=O)OCC1CN(c2ccc(OCc3cccc([N+](=O)[O-])c3)cc2)C(=S)O1 (stereo not drawn) [compound 117]
ED50 [1]: 1.5 mg/kg | ED50 [2]: 1.2 mg/kg

COCC1CN(c2ccc(OCC3=CCCCC3)cc2)C(=O)O1 (stereo not drawn) [compound 56]
ED50 [1]: 3 mg/kg

COCC1CN(c2ccc(OCc3cccc(C(F)(F)F)c3)cc2)C(=O)O1 (stereo not drawn) [compound 66]
ED50 [1]: 6 mg/kg | ED50 [2]: 4.7 mg/kg

CN(C)CC1CN(c2ccc(OCCC#N)cc2)C(=O)O1 (stereo not drawn) [compound 171]
ED50 [1]: 25 mg/kg | ED50 [2]: 19.5 mg/kg

CCCCCCCCC(=O)OCC1CN(c2ccc(OCC3CCCCC3)cc2)C(=O)O1 (stereo not drawn) [compound 122]
ED50 [1]: 6.2 mg/kg | ED50 [2]: 6.8 mg/kg

CC(=O)OCC1CN(c2ccc(OCc3cccc(F)c3)cc2)C(=O)O1 (stereo not drawn) [compound 130]
ED50 [1]: 9.6 mg/kg | ED50 [2]: 6.2 mg/kg

CCCCCCCCC(=O)OCC1CN(c2ccc(OCc3cc(Cl)cc([N+](=O)[O-])c3)cc2)C(=O)O1 (stereo not drawn) [compound 138]
ED50 [1]: 6 mg/kg

CCCCOc1ccc(N2CC(COC(C)=O)OC2=O)cc1 (stereo not drawn) [compound 11]
ED50 [1]: 6.2 mg/kg | ED50 [2]: 4.2 mg/kg

CC(=O)OCC1CN(c2ccc(OCC3CCCCC3)cc2)C(=O)O1 (stereo not drawn) [compound 21]
ED50 [1]: 3.5 mg/kg | ED50 [2]: 2.1 mg/kg

OCC1CN(c2ccc(OCc3cccc(C(F)(F)F)c3)cc2)C(=S)O1 (stereo not drawn) [compound 98]
ED50 [1]: 12.5 mg/kg | ED50 [2]: 12.5 mg/kg

C=CCOCC1CN(c2ccc(OCc3cccc([N+](=O)[O-])c3)cc2)C(=O)O1 (stereo not drawn) [compound 71]
ED50 [1]: 0.8 mg/kg | ED50 [2]: 1 mg/kg

CCCCCCCCC(=O)OCC1CN(c2ccc(OCc3ccc(F)cc3)cc2)C(=O)O1 (stereo not drawn) [compound 136]
ED50 [1]: 31 mg/kg

CN(C)CC1CN(c2ccc(OCC3CCCC3)cc2)C(=O)O1 (stereo not drawn) [compound 78]
ED50 [2]: 6.2 mg/kg

CCCCC(=O)OCC1CN(c2ccc(OCC3CCCCC3)cc2)C(=O)O1 (stereo not drawn) [compound 104]
ED50 [2]: 6.2 mg/kg

CC(C)(C)C(=O)OCC1CN(c2ccc(OCCC#N)cc2)C(=O)O1 (stereo not drawn) [compound 7]
ED50 [1]: 7.4 mg/kg

CCC(=O)OCC1CN(c2ccc(OCc3cccc(F)c3)cc2)C(=O)O1 (stereo not drawn) [compound 44]
ED50 [2]: 6.2 mg/kg

CCC(=O)OCC1CN(c2ccc(OCc3cccc(F)c3)cc2)C(=O)O1 (stereo not drawn) [compound 106]
Test A ED 50 [2]: 6.2 mg/kg

COCC1CN(c2ccc(OCc3ccc(F)cc3)cc2)C(=O)O1 (stereo not drawn) [compound 64]
ED50 [1]: 4.5 mg/kg

NCC1CN(c2ccc(OCC3CCCCC3)cc2)C(=O)O1 (stereo not drawn) [compound 172]
ED50 [1]: 8.6 mg/kg

CC(C)C(=O)OCC1CN(c2ccc(OCc3cccc(F)c3)cc2)C(=O)O1 (stereo not drawn) [compound 107]
ED50 [1]: 12 mg/kg

CCCCOc1ccc(N2CC(CN(C)C)OC2=O)cc1 (stereo not drawn) [compound 75]
ED50 [2]: 8 mg/kg

CCC(=O)OCC1CN(c2ccc(OCc3ccc(F)cc3)cc2)C(=O)O1 (stereo not drawn) [compound 135]
ED50 [1]: 4.2 mg/kg

CC(C)OCC1CN(c2ccc(OCc3cccc(Cl)c3)cc2)C(=O)O1 (stereo not drawn) [compound 60]
ED50 [2]: 30 mg/kg

CCC(=O)OCC1CN(c2ccc(OCC3CCCCC3)cc2)C(=O)O1 (stereo not drawn) [compound 22]
ED50 [1]: 3 mg/kg

CC(C)CC(=O)OCC1CN(c2ccc(OCc3cccc([N+](=O)[O-])c3)cc2)C(=O)O1 (stereo not drawn) [compound 134]
ED50 [1]: 3.9 mg/kg

COCC1CN(c2ccc(OCCCC#N)cc2)C(=O)O1 (stereo not drawn) [compound 110]
ED50 [2]: 0.3 mg/kg

CNCC1CN(c2ccc(OCC3CCCCC3)cc2)C(=O)O1 (stereo not drawn) [compound 173]
ED50 [1]: 4.7 mg/kg

CCCOCC1CN(c2ccc(OCc3cccc(C#N)c3)cc2)C(=O)O1 (stereo not drawn) [compound 160]
ED50 [1]: 4.2 mg/kg

N#CCCOc1ccc(N2CC(CO)OC2=S)cc1 (stereo not drawn) [compound 102]
ED50 [2]: 6.2 mg/kg

CCCCCOc1ccc(N2CC(COC)OC2=O)cc1 (stereo not drawn) [compound 148]
ED50 [2]: 2.2 mg/kg

CC(=O)OCC1CN(c2ccc(OCc3cccc(C#N)c3)cc2)C(=S)O1 (stereo not drawn) [compound 120]
ED50 [1]: 3 mg/kg

OCC1CN(c2ccc(OCC3=CCCCC3)cc2)C(=S)O1 (stereo not drawn) [compound 101]
ED50 [2]: 18 mg/kg

OCC1CN(c2ccc(OCC3CCOCC3)cc2)C(=S)O1 (stereo not drawn) [compound 119]
ED50 [1]: 8 mg/kg

CCCCCCCCC(=O)OCC1CN(c2ccc(OCCC#N)cc2)C(=O)O1 (stereo not drawn) [compound 9]
ED50 [1]: 25 mg/kg
